Where two headings read alike, the source gives them in different places.
Tests used:
[1] = test system: 3D7-MR4 trophozoite parasite-infected RBCs; assay: Metabolomic profiling (hydrophilic metabolite changes, UHPLC-MS); format: cell-based, Plasmodium falciparum
[2] = test system: asynchronous 3D7-A10 parasite cultures; assay: Standard 72-h exposure asexual blood stage susceptibility assay (IC50^72h); format: cell-based, Plasmodium falciparum; settings: Plasmodium falciparum, 3D7, 72 h, read-out: Overall (72hr assay) Mean IC50 (IC50^72h)
[3] = test system: Plasmodium falciparum 3D7-A10 parasites; assay: Stage specificity assay (8-h exposure of synchronized stages, IC50^8h); format: cell-based; settings: for Ratio lowest IC50 8hr/IC50 72hr: 3D7-A10; for IC50: Plasmodium falciparum; for Peak Activity (Table S1): stage(s) with the lowest IC50^8h
[4] = 3D7, read-out: Early rings IC50 (IC50^8h), 8-h exposure 0–8 hr, bound given in μM
[5] = 3D7, read-out: Early trophozoites Mean IC50 (IC50^8h), 8-h exposure 16–24 hr, 3D7-A10, survival at 60 h
[6] = 3D7, read-out: Late rings IC50 (IC50^8h), 8-h exposure 8–16 hr, bound given in μM
[7] = 3D7, read-out: Late trophozoites Mean IC50 (IC50^8h), 8-h exposure 24–32 hr, 3D7-A10, survival at 60 h

Cl.c1ccc2c(NCCCCCCNc3c4c(nc5ccccc35)CCCC4)c3c(nc2c1)CCCC3 [MMV019555]
peptide levels (hemoglobin catabolism signature) ([1]; 10 × IC50^72h, 2.5 hr, trophozoites): decreased peptide levels
Log2(fold changes) 3-phosphoglycerate ([1]; metabolite 3-phosphoglycerate, log2 fold change): -0.7704
Log2(fold changes) 4-Pyridoxic acid ([1]; metabolite 4-Pyridoxic acid, log2 fold change): -0.0064
Log2(fold changes) 4-aminobutyrate ([1]; metabolite 4-aminobutyrate, log2 fold change): -0.0746
Log2(fold changes) 4-phosphopantetheine ([1]; metabolite 4-phosphopantetheine, log2 fold change): 0.0000
Log2(fold changes) 4-phosphopantothenate ([1]; metabolite 4-phosphopantothenate, log2 fold change): -0.0563
Log2(fold changes) 5-aminopentanoic acid ([1]; metabolite 5-aminopentanoic acid, log2 fold change): 0.0000
Log2(fold changes) 5-methyl-THF ([1]; metabolite 5-methyl-THF, log2 fold change): 0.0000
Log2(fold changes) 5-phosphoribosyl-1-pyrophosphate ([1]; metabolite 5-phosphoribosyl-1-pyrophosphate, log2 fold change): 0.0000
Log2(fold changes) 6-phospho-D-gluconate ([1]; metabolite 6-phospho-D-gluconate, log2 fold change): -0.1925
Log2(fold change) HVDD ([1]; metabolite HVDD): -3.3896
Log2(fold change) Hydroxyisocaproic acid ([1]; metabolite Hydroxyisocaproic acid): 0.0000
Log2(fold change) IDP ([1]; metabolite IDP): 0.0000
Log2(fold change) IMP ([1]; metabolite IMP): 0.2158
Log2(fold change) Inositol ([1]; metabolite Inositol): 0.0000
Log2(fold change) Isopentyl-PP ([1]; metabolite Isopentyl-PP): 0.0000
Log2(fold change) L-arginino-succinate ([1]; metabolite L-arginino-succinate): 2.1877
Log2(fold change) LD ([1]; metabolite LD): -0.1309
Log2(fold change) Myristoyl/tetradecanoyl-CoA ([1]; metabolite Myristoyl/tetradecanoyl-CoA): 0.0000
Log2(fold change) N-Acetyl-L-alanine ([1]; metabolite N-Acetyl-L-alanine): -0.6973
Log2(fold change) N-acetyl-L-ornithine ([1]; metabolite N-acetyl-L-ornithine): -2.1230
Log2(fold change) N-acetyl-glucosamine-1/6-phosphate ([1]; metabolite N-acetyl-glucosamine-1/6-phosphate): -0.2838
Log2(fold change) N-acetyl-glutamate ([1]; metabolite N-acetyl-glutamate): 0.3598
Log2(fold change) N-acetyl-glutamine ([1]; metabolite N-acetyl-glutamine): -3.0977
Log2(fold change) N-carbamoyl-L-aspartate ([1]; metabolite N-carbamoyl-L-aspartate): -1.7500
Log2(fold change) NAD+ ([1]; metabolite NAD+): -0.0354
Log2(fold change) NADH ([1]; metabolite NADH): 0.0000
Log2(fold change) NADP+ ([1]; metabolite NADP+): 0.1571
Log2(fold change) NADPH ([1]; metabolite NADPH): 0.0000
Log2(fold change) O-acetyl-L-serine ([1]; metabolite O-acetyl-L-serine): 0.0000
Log2(fold change) Octoluse 8/1P ([1]; metabolite Octoluse 8/1P): 0.0000
Log2(fold change) Octoluse Bisphosphate ([1]; metabolite Octoluse Bisphosphate): 0.2948
Log2(fold change) PD ([1]; metabolite PD): -3.7912
Log2(fold change) PE ([1]; metabolite PE): -2.1499
Log2(fold change) PEE ([1]; metabolite PEE): -2.7511
Log2(fold change) PEEK ([1]; metabolite PEEK): -0.8070
Log2(fold change) PVNF ([1]; metabolite PVNF): -5.1804
Log2(fold change) Pyroglutamic acid ([1]; metabolite Pyroglutamic acid): 0.0000
Log2(fold change) Pyrophosphate ([1]; metabolite Pyrophosphate): 0.0000
Log2(fold change) Ribose-5-phosphate ([1]; metabolite Ribose-5-phosphate): 0.0000
Log2(fold change) S-adenosyl-L-homocysteine ([1]; metabolite S-adenosyl-L-homocysteine): -0.6013
Log2(fold change) S-adenosyl-L-methioninamine ([1]; metabolite S-adenosyl-L-methioninamine): 0.0000
Log2(fold change) S-adenosyl-L-methionine ([1]; metabolite S-adenosyl-L-methionine): 0.0000
Log2(fold change) S-methyl-5'-thioadenosine ([1]; metabolite S-methyl-5'-thioadenosine): 0.0000
Log2(fold change) SD ([1]; metabolite SD): -1.1672
Log2(fold change) SDL ([1]; metabolite SDL): -3.6117
Log2(fold change) SID ([1]; metabolite SID): -6.9124
Log2(fold change) Sedoheptulose bisphosphate ([1]; metabolite Sedoheptulose bisphosphate): 0.7315
Log2(fold change) Thiamine pyrophosphate ([1]; metabolite Thiamine pyrophosphate): 0.0000
Log2(fold changes) UDP-D-glucose ([1]; metabolite UDP-D-glucose, log2 fold change): 0.2602
Log2(fold changes) UDP-D-glucuronate ([1]; metabolite UDP-D-glucuronate, log2 fold change): 0.1434
Log2(fold changes) UDP-N-acetyl-glucosamine ([1]; metabolite UDP-N-acetyl-glucosamine, log2 fold change): 0.1146
Log2(fold changes) UDP ([1]; metabolite UDP, log2 fold change): 0.8739
Log2(fold changes) UMP ([1]; metabolite UMP, log2 fold change): -0.0547
Log2(fold changes) UTP ([1]; metabolite UTP, log2 fold change): -0.1611
Log2(fold change) hydroxyphenylpyruvate ([1]; metabolite hydroxyphenylpyruvate): 0.0000
Log2(fold change) hydroxyproline/Aminolevulinate ([1]; metabolite hydroxyproline/Aminolevulinate): 0.0631
Log2(fold change) hypoxanthine ([1]; metabolite hypoxanthine): 0.0000
Log2(fold change) indole ([1]; metabolite indole): 0.0000
Log2(fold change) inosine ([1]; metabolite inosine): -0.4951
Log2(fold change) isoleucine ([1]; metabolite isoleucine): 0.1119
Log2(fold change) lactate ([1]; metabolite lactate): 0.0000
Log2(fold change) leucine ([1]; metabolite leucine): -0.0578
Log2(fold change) lysine ([1]; metabolite lysine): 0.0000
Log2(fold change) malate ([1]; metabolite malate): -0.8281
Log2(fold change) maleic acid ([1]; metabolite maleic acid): -0.8184
Log2(fold change) methionine ([1]; metabolite methionine): 0.4693
Log2(fold change) myo-inositol ([1]; metabolite myo-inositol): 0.0000
Log2(fold change) nicotinamide mononucleotide ([1]; metabolite nicotinamide mononucleotide): 0.0000
Log2(fold change) nicotinate ([1]; metabolite nicotinate): -0.1129
Log2(fold change) ornithine ([1]; metabolite ornithine): 0.0000
Log2(fold change) orotate ([1]; metabolite orotate): -0.7791
Log2(fold change) orotidine-5'-phosphate ([1]; metabolite orotidine-5'-phosphate): -1.4071
Log2(fold change) oxaloacetate ([1]; metabolite oxaloacetate): 0.0000
Log2(fold change) p-aminobenzoate ([1]; metabolite p-aminobenzoate): 0.0000
Log2(fold change) p-hydroxybenzoate ([1]; metabolite p-hydroxybenzoate): 0.0000
Log2(fold change) pantothenate ([1]; metabolite pantothenate): 0.0969
Log2(fold change) phenylalanine ([1]; metabolite phenylalanine): -0.1076
Log2(fold change) phenylpyruvate ([1]; metabolite phenylpyruvate): 0.0000
Log2(fold change) phosphoenolpyruvate ([1]; metabolite phosphoenolpyruvate): -0.6196
Log2(fold change) prephenate ([1]; metabolite prephenate): 0.0000
Log2(fold change) proline ([1]; metabolite proline): -0.3102
Log2(fold change) pyridoxine ([1]; metabolite pyridoxine): 0.0000
Log2(fold change) pyruvate ([1]; metabolite pyruvate): -0.3424
Log2(fold change) riboflavin ([1]; metabolite riboflavin): 0.1087
Log2(fold change) ribose ([1]; metabolite ribose): 0.0000
Log2(fold change) ribose-phosphate ([1]; metabolite ribose-phosphate): -0.8253
Log2(fold change) ribulose-5-phosphate ([1]; metabolite ribulose-5-phosphate): -0.7229
Log2(fold change) serine ([1]; metabolite serine): 0.0219
Log2(fold change) sn-glycerol-3-phosphate ([1]; metabolite sn-glycerol-3-phosphate): -0.8632
Log2(fold change) succinate/Methylmalonic acid ([1]; metabolite succinate/Methylmalonic acid): 0.2169
Log2(fold change) succinyl-CoA/methylmalonyl-CoA ([1]; metabolite succinyl-CoA/methylmalonyl-CoA): 0.0000
Log2(fold change) taurine ([1]; metabolite taurine): 0.0000
Log2(fold change) thiamine ([1]; metabolite thiamine): -0.8248
Log2(fold change) threonine/homoserine ([1]; metabolite threonine/homoserine): -0.3688
Log2(fold change) thymidine ([1]; metabolite thymidine): 0.0000
Log2(fold changes) thymine ([1]; metabolite thymine, log2 fold change): 0.0000
Log2(fold changes) trehalose-6-Phosphate ([1]; metabolite trehalose-6-Phosphate, log2 fold change): 0.0000
Log2(fold changes) tryptophan ([1]; metabolite tryptophan, log2 fold change): -0.0448
Log2(fold changes) tyrosine ([1]; metabolite tyrosine, log2 fold change): 0.2358
Log2(fold changes) uridine ([1]; metabolite uridine, log2 fold change): 0.0000
IC50 [2]: 33.3 nM
Ratio lowest IC50 8hr/IC50 72hr [3]: 2.4
IC50 ([3]; 3D7, read-out: Early rings Mean IC50 (IC50^8h)): 0.755 µM
IC50 ([3]; 3D7, read-out: Early trophozoites Mean IC50 (IC50^8h)): 0.0814 µM
IC50 ([3]; 3D7, read-out: Late rings Mean IC50 (IC50^8h)): 0.788 µM
IC50 ([3]; 3D7, read-out: Late trophozoites Mean IC50 (IC50^8h)): 0.11 µM
IC50 ([3]; 3D7, read-out: Schizonts Mean IC50 (IC50^8h)): 0.349 µM
Stage of peak activity (Figure 6) ([3]; period when the parasite was most susceptible (lowest IC50^8h)): trophozoites
Peak Activity (Table S1) [3]: Trophs

O=CN(O)CCCP(=O)(O)O [Fosmidomycin, reference compound]
IC50 [2]: 405 nM
Ratio lowest IC50 8hr/IC50 72hr [3]: 4.9
IC50 ([3]; 3D7, 8 h, read-out: IC50^8h values at all tested stages, 8-h exposures, all asexual blood stages): > 1 µM
IC50 [3, 4]: > 10 µM
IC50 [3, 5]: 1.98 µM
IC50 [3, 6]: > 10 µM
IC50 [3, 7]: 1.99 µM
IC50 ([3]; 3D7, read-out: Schizonts IC50 (IC50^8h), 8-h exposure 32–40 hr, bound given in μM): > 10 µM
Peak Activity (Table S1) [3]: Trophs

CCOC(=O)C1=C(C)N=c2s/c(=C\c3cc(Cl)ccc3O)c(=O)n2C1c1ccc(OC)cc1 (stereo not shown) [MMV665971]
IC50 [2]: 185 nM
Ratio lowest IC50 8hr/IC50 72hr [3]: 2.6
killing in stage specificity assay ([3]; 8-h exposures, survival curves): incomplete killing at all asexual blood stages
IC50 [3, 4]: > 25 µM
IC50 [3, 5]: 0.496 µM
IC50 [3, 6]: > 25 µM
IC50 [3, 7]: 0.485 µM
IC50 ([3]; 3D7, read-out: Schizonts Mean IC50 (IC50^8h), 8-h exposure 32–40 hr, 3D7-A10, survival at 60 h): 0.523 µM

— paper PMC7031696 (Cell chemical biology, 2019)
